Assay results: US7662803B2, “Method for treating warm-blooded vertebrates with halide-free glucosamine-acidic drug complexes” (Gluconova, LLC, priority 2004, dated 2010)

Tests used:
Type in all cases: in vivo
male Swiss Webster mice [1] = assay: Metrazol-induced convulsions (test for antiepileptic activity); details: 15 mg/kg subcutaneous, 15 min before metrazol 120 mg/kg s.c., 10 mice
Description: Three groups of 10 male Swiss Webster mice (25-30 g) received a subcutaneous injection of one of the following treatments: vehicle alone; phenytoin (15 mg/kg in 1% Tween® 80); halide-free glucosamine-phenytoin complex, ˜1:1 molar ratio, (15 mg/kg in water). Fifteen minutes later, each animal was injected subcutaneously with a convulsant dose of metrazol (120 mg/kg) and observed for 60 minutes for an entire-body convulsion.

male Swiss-Webster mice = assay: abdominal irritant test (test for analgesia), acetylcholine bromide i.p.; details: 30 min before acetylcholine bromide 5.5 mg/kg i.p., observed 10 min, 10 mice per group
Description: The test that was employed is an abdominal irritant test that was carried out in accordance with the procedure set forth by Collier et al., Brit. J. Pharmacol., 32:295-310 (1968).
Each group of 10 male Swiss-Webster mice weighing 25-30 g received an oral injection of (a) distilled water or 1% Tween® 80; or (b) a previously established analgesic dose of either ibuprofen (30 mg/kg), ketoprofen (200 mg/kg), naproxen (30 mg/kg), piroxicam (3 mg/kg) or aspirin (150 mg/kg) or ([…]).
Thirty minutes after each injection, each mouse was injected i.p. ([…]) with an aqueous solution of acetylcholine bromide (5.5 mg/kg). The animals were then observed for 10 minutes for the presence or absence of a characteristic wave of contraction and elongation passing caudally along the abdominal wall, accompanied by a twisting of the trunk and followed by extension of the hind limbs. The percentage of analgesia was then calculated for each group based on the percentage of mice displaying no behavioral response.

male Swiss Webster mice [2] = assay: Elevated Plus Maze (test for antianxiety activity); details: 0.50 mg/kg intraperitoneal, 30 min before test, 5 minute on maze, 6 mice
Description: The apparatus employed in this example consisted of two darkened enclose arms and two open arms, with a light beam focused on the open arms. The maze is elevated to a height of 55 cm. Mice have a desire to explore the apparatus, but the open, bristly lit arms present an aversive environment so that their preference is to remain in the enclosed arms.
Thirty minutes later, each animal was individually placed on the elevated maze for 5 minute and the time spent on the open (aversive) arms was recorded.

[3] = 30 mg/kg oral (complex: mg/kg of the complex)

O=C1NC(=O)C(c2ccccc2)(c2ccccc2)N1 [Phenytoin, phenytoin]
No. of mice protected (no body seizures in 60 min.) (male Swiss Webster mice [1]): 1/10

CN1C(C(=O)Nc2ccccn2)=C(O)c2ccccc2S1(=O)=O [piroxicam]
analgesia (percentage of mice displaying no behavioral response) (male Swiss-Webster mice; 3 mg/kg oral (complex: mg/kg of the complex)): 70%

COc1ccc2cc([C@H](C)C(=O)O)ccc2c1 [naproxen]
analgesia (percentage of mice displaying no behavioral response) (male Swiss-Webster mice; [3]): 70%

CC(C)Cc1ccc(C(C)C(=O)O)cc1 (stereo not shown) [ibuprofen]
analgesia (percentage of mice displaying no behavioral response) (male Swiss-Webster mice; [3]): 80%

CN1C(=O)CN=C(c2ccccc2)c2cc(Cl)ccc21 [Diazepam, diazepam]
Mean time (sec) ± s.e.m. in open arms (male Swiss Webster mice [2]): 30.3 ± 12.7 s

CC(=O)Oc1ccccc1C(=O)O [aspirin]
analgesia (percentage of mice displaying no behavioral response) (male Swiss-Webster mice; 0.50 mg/kg oral as printed (complex: mg/kg of the complex)): 70%

CC(C(=O)O)c1cccc(C(=O)c2ccccc2)c1 (stereo not shown) [ketoprofen]
analgesia (percentage of mice displaying no behavioral response) (male Swiss-Webster mice; 200 mg/kg oral (complex: mg/kg of the complex)): 56%
